Data as given in US12595483B2, “Treatment of tumors with miRNA targeting CDK4/CDK6” (Institute For Cancer Research, priority 2017, dated 2026).

Columns and labels:
Assay type in all cases: cell-based, human
CDK4 3′UTR = test: CDK4-Luciferase (pMirtarget CDK4 3′UTR) reporter assay in stable HCT-116 cells; details: 48 hours; for direct binding to the 3′UTR region of CDK4: pMirtarget-CDK4-Luciferase vector, HCT-116, 50 nM mimic
Procedure: (§1) Transfection of miRNA mimics, siRNA and plasmid constructs: All miRNA mimics and siRNA transfections were performed by reverse transfection using Lipofectamine RNAiMAX (Life technologies, Grand Island, NY). 80 nM siRNA was used in all experiments for HT-29, RKO and SW-480 cell lines. 40 nM siRNA was used for HCT-116 cells. miRNA mimics were transfected at concentrations of either 25 nM, 50 nM, or 100 nM, as indicated in respective assays. CDK4-Luciferase vector was transfected in HCT-116 cells using Lipofectamine 3000 (Life technologies, Grand Island, NY) and stable cells were selected using G418 antibiotic (500 μg/mL).
Luciferase assays: CDK4-Luciferase containing stable HCT-116 cells were reverse-transfected with either scramble duplex or 50 nM miRNA mimics. Luciferase signal was detected 48 hours post-transfection and Relative Luciferase Units (RLU) were calculated by normalizing luciferase signal per μg of protein per assay well. All transfections were performed in triplicates and reported as RLU units±SEM.
Referring in particular to FIGS. 2A, 2B, and 2C, data is presented showing that miR-6883-5p and miR-149* negatively regulate expression of […] and CDK6 in CRC cell lines. Referring to FIG. 2A, CDK4 and CDK6 protein levels were detected in a panel of CRC cell lines reverse transfected with 50 nM of miRNA mimics or scrambled duplex (SCR) for 72 hours. Referring to FIG. 2B, qRT-PCR was performed for CDK4 and CDK6 in SCR or miRNA mimics transfected in CRC cell lines (50 nM, 72 hours, n=3). *, ** and *** indicate p-value relative to SCR expression. Referring to FIG. 2C, HCT-116 cells stably selected with CDK4-Luciferase construct were reverse transfected with SCR or 50 nM of the indicated miRNA mimics for 48 hours. Measured luciferase activities were normalized per μg of protein for indicated samples and reported as RLU±SEM (n=3). * indicates p-value relative SCR RLU.

p21 = test: Western blot of p21 (cell cycle arrest); details: 50 nM mimic; 5-FU 384 μM (HT-29 and SW-480) or 25 μM (HCT-116 and RKO)
Procedure: (§2) Western blot: Western blotting was performed by routine and well known procedures. The following antibodies were used: CDK4 (Santa Cruz Biotechnology, sc-260), CDK6 (CST, D4S8S), CDK1 (Santa Cruz Biotechnology, sc-54), Cyclin-D1 (CST, 92G2), p-Rb (S795) (CST, 9301S), Total Rb, BCLxL (CST, 2764S), PARP (CST, 9542), p53-DO1 (Santa Cruz Biotechnology, sc-126), p21 (Calbiochem, OP64), and β-actin (Sigma, A5441).
(§3) A panel of CRC cell lines was reverse transfected with 25 nM (HCT-116) or 50 nM of SCR or indicated miRNA mimics. At 16 hours post-transfection, Irinotecan (see, FIG. 5A) or 5-FU (see, FIG. 5B) at indicated doses were added. Synergy of miRNA-drug was measured by cell viability 72 hours post-transfection using CellTiter-Glo assay. The effect on apoptosis and cell cycle markers with miRNA alone or combination were assessed using 50 nM of miRNA mimic and […] (HT-29 and SW-480) or 2.5 μM Irinotecan (HCT-116 and RKO) by western blot. For 5-FU, 384 μM (HT-29 and SW-480) and 25 μM (HCT-116 and RKO) were used. Representative western blots are shown in FIG. 5C and FIG. 5D, respectively.

CDK4 = CDK4 protein (western blot) and RNA (qRT-PCR) expression in CRC cell lines transfected with miRNA mimics; details: 50 nM miRNA mimic vs scrambled duplex, 72 hours; HCT-116, RKO, HT-29, SW-480
Procedure: as §1
(§4) Quantitative RT-PCR (qRT-PCR): Total RNA, which includes miRNA, was isolated using the Quick-RNA™ MiniPrep kit (Zymo Research, Irvine, CA). One μg of total RNA from each sample was subjected to cDNA synthesis using SuperScript® III Reverse Transcriptase kit (Life Technologies, Grand Island, NY), for detection of CDK4, CDK6, and housekeeping genes. […] The relative expression of the reported genes and miRNAs was determined using real-time PCR performed on Applied Biosystems 7900HT Fast Real-Time PCR system. […] Each cDNA sample was amplified using Power SYBR Green (Applied Biosystems, CA) and miRNA components were quantified using TaqMan® Universal Master Mix II, no UNG (Applied Biosystems, CA). […]

[1] = tested on: p53 mutant cell lines HT-29 and SW-480; test: miRNA-5-FU combination by cell viability (CellTiter-Glo); details: 50 nM mimic, 5-FU added 16 hours post-transfection, read 72 hours
Procedure: (§5) Cell Proliferation assays: Five thousand to ten thousand cells were reverse transfected with either scramble duplex or miRNA to a net concentration of 50 nM and plated in 96-well plate. Cell viability was measured 72 hours post-transfection using CellTiter-Glo® Luminescent Cell Viability Assay (Promega). Percent cell viability was calculated by normalizing the luminescence signal to scramble duplex wells. All transfections were performed in triplicates and reported as % Viability±SEM.
as §3

CDK6 = CDK6 protein (western blot) and RNA (qRT-PCR) expression in CRC cell lines transfected with miRNA mimics; details: 50 nM miRNA mimic vs scrambled duplex, 72 hours; HCT-116, RKO, HT-29, SW-480
Procedure: as §1, §4

phosphorylated Rb (S795) = test: Western blot of cell cycle markers; details: 100 nM miRNA mimics, 72 hours post-transfection; all four cell lines
Procedure: as §2
(§6) Referring in particular to FIGS. 3A, 3B, 3C, 3D, and 3E, data is presented showing that restoring expression of miR-6883-5p and miR-149* results in G1-arrest and cell death in CRC cell lines. […] The effects on cell viability were measured 72 hours post-transfection using CellTiter-Glo assay. Referring to FIG. 3B, the effects of the miRNA mimics on long-term cell proliferation of CRC cell lines was assessed by colony formation assays performed in 6-well plates. […] The effects on cell cycle markers (see, FIG. 3C) and markers of apoptosis (see, FIG. 3D) were evaluated by western blot 72 hours post-transfection. […] Referring to FIG. 3E, cell cycle profiles and apoptotic cells were assessed in three CRC cell lines by reverse transfecting with SCR or 50 nM (HCT-116 and HT-29) or 100 nM (RKO) miRNA mimics. 72 hours post-transfection, cells were fixed, stained with PI, and analyzed by FACS. […]

[2] = tested on: panel of CRC cell lines (HCT-116, RKO, HT-29, SW-480); test: miRNA-Irinotecan synergy by cell viability (CellTiter-Glo); details: 25 nM (HCT-116) or 50 nM mimic, Irinotecan added 16 hours post-transfection, read 72 hours; all four cell lines
Procedure: as §5, §3

XIAP = test: Western blot of XIAP; details: 100 nM miRNA mimic, 72 hours
BCLXL = test: Western blot of BCLXL; details: 100 nM miRNA mimic, 72 hours
Procedure: as §2, §6

PARP = test: Western blot of markers of apoptosis (PARP cleavage); details: RKO and SW-480 cells; 100 nM miRNA mimics, 72 hours
Procedure: Referring to FIG. 3A, a panel of CRC cell lines was reverse transfected with 50 nM SCR or 50 nM of indicated miRNA mimics. […] All four CRC cell lines were reverse transfected with 100 nM SCR or indicated miRNA mimics. The effects on cell cycle markers (see, FIG. 3C) and markers of apoptosis (see, FIG. 3D) were evaluated by western blot 72 hours post-transfection. Representative western blots are shown (n=3).

Compound	direct binding to the 3′UTR region of CDK4 (CDK4 3′UTR)	cell cycle arrest as seen by p21 levels, single agent (p21)	CDK4 protein and RNA level (CDK4)	sensitivity to 5-FU (cell viability) [1]	CDK6 protein and RNA level (CDK6)	levels of phosphorylated Rb (S795) (phosphorylated Rb (S795))	synergy with Irinotecan (cell viability) [2]	XIAP level (XIAP)	luciferase signal (CDK4 3′UTR; HCT-116 CDK4-Luciferase stable cells, 50 nM mimic, compared to miR-206 and miR-149*)	BCLXL level (BCLXL)	apoptosis (PARP-cleavage) (PARP)
hsa-miR-149-3p [miR-149*]	directly bind to the 3′UTR region of CDK4	caused cell cycle arrest	no impact on CDK4	increased the sensitivity of p53 mutant cell lines HT-29 and SW-480 to 5-FU	more potent in reducing levels of CDK6	reduced levels of phosphorylated Rb (S795)	synergized with Irinotecan	–	–	–	–
hsa-miR-6883-5p (AGGGAGGGUGUGGUAUGGAUGU; called a modified oligonucleotide, chemistry not given here; listed as Homo sapiens) [miRNA mimic purchased from Sigma-Aldrich (HMI2616)]	directly bind to the 3′UTR region of CDK4	–	targeted both CDK4 and CDK6 at both the protein and RNA level	increased the sensitivity of p53 mutant cell lines HT-29 and SW-480 to 5-FU	targeted both CDK4 and CDK6 at both the protein and RNA level	reduced levels of phosphorylated Rb (S795)	synergized with Irinotecan	downregulated XIAP and BCLXL	significantly reduced luciferase signal	downregulated XIAP and BCLXL	most potent in inducing apoptosis
O=c1[nH]cc(F)c(=O)[nH]1 [5-FU, 5-fluorouracil, reference compound]	–	caused cell cycle arrest	–	–	–	–	–	–	–	–	–
